The source of these data is ChEMBL document CHEMBL5356930, “Small-molecule inhibitors of bacterial-producing metallo-β-lactamases: insights into their resistance mechanisms and biochemical analyses of their activities” (RSC Med Chem, 2023).

The term CC50 denotes the concentration at which the toxic effect on the cells reaches its halfway point. Read a high CC50 as lower toxicity to the cells. As a reminder, the IC50 is the concentration at which inhibition is half-maximal. One may read the MIC as the lowest concentration that inhibits growth of the organism. The MIC50 is the lowest concentration that inhibits either 50% of growth or 50% of the strains tested, depending on the study. Higher therefore signals weaker potency. As a reminder, the Ki is the dissociation constant of the complex between target and ligand, obtained from inhibition or displacement. By inhibition is commonly meant the share of the control response that was lost under treatment. A higher inhibition goes with a response far below the control. What is called LD50 is the dose expected to kill half of the subjects tested. As usually defined, the Kd is the free concentration of one partner at which half of the binding sites on the other are occupied at equilibrium, for simple one-to-one binding.

The nature of data set [1]: Cytotoxicity against human HepG2 cells incubated for 24 hrs by CellTiter-Glo assay. Format: toxicity, cell-based.
The nature of data set [2]: Inhibition of His-tagged recombinant bacterial Metallo-beta-lactamase IMP-1 (unknown origin) expressed in Escherichia coli BL21 star cells. Set-up: species or system Bacteria.
Data set [3] concerns Escherichia coli. As to the kind of experiment: Antibacterial activity against IMP-type producing Escherichia coli clinical isolate in presence of meropenem by CLSI-based broth microdilution method. It counts as functional.
Data set [4] relates to Escherichia coli. As to the kind of experiment: Antibacterial activity against IMP-type producing Escherichia coli clinical isolate in presence of imipenem by CLSI-based broth microdilution method. It counts as functional. A general note: Broth dilution looks for growth in wells or tubes with falling amounts of substance.
Data set [5] deals with Escherichia coli. The experiment in a line: Antibacterial activity against NDM-1-producing Escherichia coli assessed as fold reduction in MIC in presence of meropenem CLSI-based broth microdilution method. It counts as functional.
The test system of data set [6] is Klebsiella pneumoniae. The experiment in a line: Antibacterial activity against NDM-1-producing Klebsiella pneumoniae clinical isolate assessed as fold reduction in MIC in presence of meropenem CLSI-based broth microdilution method. Format: functional.
The target in data set [7] is T1, Metallo-beta-lactamase VIM-2 (Pseudomonas aeruginosa, UniProt D1MEN9). As to the kind of experiment: Inhibition of N-terminal His-tagged recombinant Pseudomonas aeruginosa Metallo-beta-lactamase VIM-2 expressed in Escherichia coli BL21 star cells using nitrocefin as substrate by absorbance based assay.
In data set [8] the test system is Klebsiella pneumoniae. As to the kind of experiment: Antibacterial activity against VIM-1-producing Klebsiella pneumoniae NCTC 13440 clinical isolate by CLSI-based broth microdilution method. Format: functional.
Data set [9] relates to Klebsiella pneumoniae. The experiment in a line: Antibacterial activity against IMP-type producing Klebsiella pneumoniae LC 82 clinical isolate in presence of imipenem. It counts as functional.
The subject of the next data set is Enterobacter sp. As to the kind of experiment: Antibacterial activity against IMP-type producing Enterobacter sp. 42713 clinical isolate in presence of imipenem. Format: functional.
A further data set concerns Proteus mirabilis. As to the kind of experiment: Antibacterial activity against IMP-type producing Proteus mirabilis UNC KPC 170 clinical isolate in presence of imipenem. Format: functional.
Data set [10] is described as follows: Binding affinity to bacterial Metallo-beta-lactamase IMP-1 (unknown origin) assessed as inhibition constant. Set-up: species or system Bacteria.
Data set [11] is described as follows: Cytotoxicity against human HEK293 cells assessed as cell viability >533 uM relative to control. Format: toxicity, cell-based. The note with it: read-out: Activity.
The nature of data set [12]: Cytotoxicity against mouse L929 cells assessed as cell viability >533 uM relative to control. Format: toxicity, cell-based. The note with it: read-out: Activity.
The next data set deals with Beta-lactamase NDM-1 (Escherichia coli, UniProt E5KIY2). The experiment in a line: Inhibition of NDM-1 in Escherichia coli assessed as reduction in imipenem hydrolytic activity.
Chain of Beta-lactamase NDM-1 (E5KIY2 whole entry): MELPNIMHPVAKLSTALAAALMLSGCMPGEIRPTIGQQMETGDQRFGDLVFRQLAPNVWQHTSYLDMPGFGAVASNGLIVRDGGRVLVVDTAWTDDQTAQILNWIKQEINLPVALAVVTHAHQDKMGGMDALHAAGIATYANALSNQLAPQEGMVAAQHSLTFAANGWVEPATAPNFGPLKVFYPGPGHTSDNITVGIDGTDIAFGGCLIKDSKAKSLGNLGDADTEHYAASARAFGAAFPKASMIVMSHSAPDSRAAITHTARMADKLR
Data set [13] deals with T2, Metallo-beta-lactamase type 2 (Bacteria, UniProt C7C422). As to the kind of experiment: Binding affinity to bacterial NDM-1 (unknown origin) assessed as inhibition constant. The settings on record: read-out: Ki.
T2 sequence (C7C422 whole entry): as the sequence (E5KIY2 whole entry) above
In data set [14] the target is T1, Metallo-beta-lactamase VIM-2. As to the kind of experiment: Binding affinity to Metallo-beta-lactamase VIM-2 assessed as inhibition constant.
Data set [15] can be described thus: Inhibition of Acinetobacter baumannii Metallo-beta-lactamase IMP-1.
In a further data set the test system is Acinetobacter baumannii. As to the kind of experiment: Antibacterial activity against MBL-producing Acinetobacter baumannii assessed as diameter of inhibition zone in presence of imipenem. Format: functional.
Data set [16] can be described thus: Cytotoxicity against human HepG2 cells incubated for 24 hrs by AlamarBlue-based assay. It counts as toxicity, cell-based. (In general: Resazurin is reduced to fluorescent resorufin, in cell work by metabolically active cells.)
Data set [17] deals with T2, Metallo-beta-lactamase type 2. As to the kind of experiment: Inhibition of bacterial NDM-1 (unknown origin) using nitrocefin as substrate incubated for 10 mins followed by substrate addition by absorbance based assay.
Data set [18] is described as follows: Inhibition of bacterial Metallo-beta-lactamase VIM-2 (unknown origin). Set-up: species or system Bacteria.
The target in data set [19] is Beta-lactamase VIM-1 (Bacteria) (UniProt Q8GDC1). The experiment in a line: Inhibition of bacterial Metallo-beta-lactamase VIM-1 (unknown origin) at 100 uM relative to control.
Another data set relates to Bacteria. The experiment in a line: Inhibition of bacterial Metallo-beta-lactamase VIM-5 (unknown origin) at 100 uM relative to control.
Data set [20] can be described thus: Binding affinity to bacterial Metallo-beta-lactamase IMP-1 (unknown origin) expressed in Escherichia coli BL21(DE3) cells assessed as inhibition constant. Set-up: species or system Bacteria.
Data set [21] has as its system Escherichia coli. As to the kind of experiment: Synergistic activity against IMP-1 producing engineered Escherichia coli NUBL-24 assessed as fractional inhibition concentration index incubated for 16 to 20 hrs in presence of meropenem by CLSI-based microdilution method. It counts as functional. The note with it: time 16-20 hrs.
In the next data set the test system is HeLa. The experiment in a line: Cytotoxicity against human HeLa cells at >1000 uM incubated for 24 hrs by Celltiter assay relative to control. It counts as toxicity, cell-based.
Data set [22] relates to Escherichia coli. The experiment in a line: Synergistic activity against IMP-1 producing Escherichia coli NUBL-24 infected in CD1 mouse assessed as death rescue at 100 mg/kg, ip measured for 7 days in presence of meropenem relative to control. Format: functional. The note with it: time 7 day.
A short description of data set [23]: Binding affinity to bacterial Metallo-beta-lactamase VIM-2 (unknown origin) expressed in Escherichia coli BL21(DE3) cells assessed as inhibition constant. Set-up: species or system Bacteria.
The subject of data set [24] is Klebsiella pneumoniae. The experiment in a line: Synergistic activity against NDM-1/VIM-1-producing Klebsiella pneumoniae MS5674 assessed as fractional inhibition concentration index in presence of meropenem by checkerboard assay. It counts as functional.
Data set [25] is described as follows: Acute toxicity in iv dosed CD1 mouse assessed as lethal dose measured for 7 days. It counts as organism-based. The settings on record: in vivo, time 7 day.
The nature of data set [26]: Acute toxicity in ip dosed CD1 mouse assessed as lethal dose measured for 7 days. Format: organism-based. The note with it: in vivo, time 7 day.
Data set [27] deals with Angiotensin-converting enzyme (Homo sapiens, UniProt P12821). As to the kind of experiment: Inhibition of angiotensin-converting enzyme (unknown origin).
Chain of Angiotensin-converting enzyme (P12821 whole entry): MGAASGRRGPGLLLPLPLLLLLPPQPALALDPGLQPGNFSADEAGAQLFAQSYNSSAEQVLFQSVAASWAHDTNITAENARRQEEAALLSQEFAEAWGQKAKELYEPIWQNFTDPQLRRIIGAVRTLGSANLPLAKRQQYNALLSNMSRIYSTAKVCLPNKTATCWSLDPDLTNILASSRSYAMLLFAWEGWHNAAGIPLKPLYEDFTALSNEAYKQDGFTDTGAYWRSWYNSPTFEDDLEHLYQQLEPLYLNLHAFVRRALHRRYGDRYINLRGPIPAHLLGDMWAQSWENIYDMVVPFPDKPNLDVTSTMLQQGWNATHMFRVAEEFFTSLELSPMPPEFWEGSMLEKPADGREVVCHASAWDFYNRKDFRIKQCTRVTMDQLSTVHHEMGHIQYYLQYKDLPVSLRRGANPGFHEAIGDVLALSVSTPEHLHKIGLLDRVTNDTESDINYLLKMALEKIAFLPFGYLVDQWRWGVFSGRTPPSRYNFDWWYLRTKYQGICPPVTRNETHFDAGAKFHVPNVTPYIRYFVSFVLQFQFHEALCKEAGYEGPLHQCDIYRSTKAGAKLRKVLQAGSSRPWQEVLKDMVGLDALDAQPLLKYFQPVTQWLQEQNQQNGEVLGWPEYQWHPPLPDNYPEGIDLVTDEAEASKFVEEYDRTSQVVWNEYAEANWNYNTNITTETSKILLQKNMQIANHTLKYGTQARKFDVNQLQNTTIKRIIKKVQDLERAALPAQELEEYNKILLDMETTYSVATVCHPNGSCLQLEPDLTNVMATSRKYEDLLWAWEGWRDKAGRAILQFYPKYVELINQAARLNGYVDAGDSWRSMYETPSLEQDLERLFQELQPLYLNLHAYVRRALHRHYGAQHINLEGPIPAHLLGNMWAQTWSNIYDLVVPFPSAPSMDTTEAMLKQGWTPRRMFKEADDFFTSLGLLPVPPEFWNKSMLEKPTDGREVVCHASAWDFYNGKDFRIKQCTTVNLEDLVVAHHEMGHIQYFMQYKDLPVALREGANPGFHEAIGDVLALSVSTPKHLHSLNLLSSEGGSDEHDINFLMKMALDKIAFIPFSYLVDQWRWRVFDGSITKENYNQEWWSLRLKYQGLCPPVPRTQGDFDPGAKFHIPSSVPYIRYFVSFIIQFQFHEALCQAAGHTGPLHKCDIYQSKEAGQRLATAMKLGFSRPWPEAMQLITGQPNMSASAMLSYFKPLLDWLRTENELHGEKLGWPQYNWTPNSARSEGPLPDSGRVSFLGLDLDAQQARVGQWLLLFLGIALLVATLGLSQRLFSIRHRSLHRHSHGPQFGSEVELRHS
In data set [28] the test system is Escherichia coli. As to the kind of experiment: Synergistic activity against VIM-2-producing Escherichia coli assessed as fractional inhibition concentration index in presence of ceftazidime by checkerboard assay. Format: functional.
In another data set the target is Beta-lactamase VIM-1 (Bacteria, UniProt Q8GDC1). As to the kind of experiment: Binding affinity to bacterial Metallo-beta-lactamase VIM-1 (unknown origin) assessed as dissociation constant.
Data set [29] in a line: Binding affinity to bacterial Metallo-beta-lactamase IMP-1 (unknown origin) using FC5 as substrate preincubated for 15 min followed by substrate addition by fluorescence based assay. Set-up: species or system Bacteria.
Data set [30] relates to Escherichia coli. The experiment in a line: Antibacterial activity against NDM-1-producing Escherichia coli RC0089 incubated for 16 to 20 hrs in presence of meropenem CLSI-based assay. Format: functional. The note with it: time 16-20 hrs.
The test system of data set [31] is Escherichia coli. The experiment in a line: Synergistic activity against NDM-1-producing Escherichia coli RC0089 assessed as fractional inhibition concentration index in presence of meropenem by CLSI-based assay. It counts as functional.

≈ marks a conversion by molar mass, not a printed value.

In [1], `Nc1ccc(-c2ccn(S(N)(=O)=O)c2C(=O)O)cn1` returned a 50% cytotoxic concentration (CC50) at 24 h above 256 µg/mL. Besides, the values for the IC50 in data set [2] and in data set [7] were 0.43 µM and 32.4 µM, respectively. Moreover, the MIC with Escherichia coli [3] worked out at 0.03 µg/mL; in the data set on Escherichia coli [4], 0.25 µg/mL. Moreover, the “fold change (FC)” value in the data set with Escherichia coli [5] and in the data set with Klebsiella pneumoniae [6] was 32 in each case. This molecule showed an MIC50 in the data set with Klebsiella pneumoniae [8] of 0.06 µg/mL (≈ 0.213 µM).
As for `CCOC(=O)[C@]1(CS)N[C@@H](C(=O)O)C(C)(C)S1`, the minimum inhibitory concentration (MIC) turned out to be 0.5 µg/mL in the data set on Klebsiella pneumoniae [9], 8 µg/mL in the data set on Enterobacter sp. and 8 µg/mL in the data set on Proteus mirabilis. Also, the results for the inhibition constant Ki in [10], in data set [13] and in data set [14] were 2 µM, 0.6 µM and 1.9 µM, respectively. Also, in data set [11], the viability at 533 µM turned out to be 85%. Further, the viability in data set [12] was 85%. For the same molecule, the IC50 at Beta-lactamase NDM-1 was determined as 10 µM.
Consider `Oc1ccccc1/C=N/c1cccnc1/N=C/c1ccccc1O`, for which the IC50 in [15] was determined as 93.7 µM. Besides, the “diameter of the inhibition zone (DIZ)” value in the data set with Acinetobacter baumannii was found to be 23 mm.
In data set [16], `CN(C[C@H](O)[C@@H](O)[C@H](O)[C@H](O)CO)C(=O)c1ccc(CN(Cc2ccccn2)Cc2ccccn2)nc1` displayed an IC50 at 24 h above 100 µM.
Molecule `O=C(O)c1cccc2oc(-c3ccc4cc(OCc5ccccc5)ccc4c3O)nc12` returned an IC50 in data set [17] of 0.38 µM.
As for `Brc1ccc(-c2nnc3n2CCCS3)cc1`, inhibition in data set [18] was half-maximal at 38.4 µM (IC50). The inhibition in data set [19] was found to be 23%; with Bacteria, 33%.
`CCc1c(C(=O)O)c(S(N)(=O)=O)c(CC)n1C`: the inhibitory constant (Ki) worked out at 0.26 µM in data set [20] and 0.02 µM in data set [23]. For the same molecule, the “fractional inhibitory concentration index (FICI)” value is listed as 0.26 in the data set on Escherichia coli [21] and 0.05 with Klebsiella pneumoniae [24]. In addition, the Activity in the data set on HeLa is above 50%; with Escherichia coli [22] it was 100%.
`Cc1oc(C)c(S(N)(=O)=O)c1C(=O)O`: the figures for the inhibition constant (Ki) in data set [20] and in data set [23] were 0.22 µM and 2.81 µM, respectively. For the same molecule, the “fractional inhibitory concentration index (FICI)” value is reported as 0.11 with Escherichia coli [21], 0.31 with Escherichia coli [28] and 0.19 with Klebsiella pneumoniae [24]. For the same molecule, the Activity with HeLa was above 50%; with Escherichia coli [22], 90%. Also, the values for the median lethal dose (LD50) at 168 h in data set [25] and in [26] were 246 mg/kg and above 1000 mg/kg, respectively. In data set [27], this molecule yielded an IC50 above 1000 µM.
With `O=C1C(SCCCS)CCN1c1ccccc1` (stereo not given), the Kd at Beta-lactamase VIM-1 was below 0.88 µM.
`CC(C)c1cccc2c(-c3ccc(F)cc3)c(C(=O)O)[nH]c12`: in [29], the 50% inhibitory concentration (IC50) was determined as 0.14 µM. In addition, the minimum inhibitory concentration (MIC) with Escherichia coli [30] stood at 16 µg/mL. The “fractional inhibitory concentration index (FICI)” value in the data set on Escherichia coli [31] worked out at 0.258.
`O=C(Cc1ccccc1)N[C@@H]1C(=O)N2C(C(=O)O)=C(CSc3cccc[n+]3[O-])CS[C@H]12` returned a half-maximal inhibitory concentration (IC50) in [17] of 7.6 µM.
